The target in this assay is T1, recombinant human mPGES-1 (Homo sapiens, UniProt O14684).
T1 construct: made in house; host or cells: Rosetta E. coli (microsomal/membrane fraction)
T1 sequence (O14684 1-152): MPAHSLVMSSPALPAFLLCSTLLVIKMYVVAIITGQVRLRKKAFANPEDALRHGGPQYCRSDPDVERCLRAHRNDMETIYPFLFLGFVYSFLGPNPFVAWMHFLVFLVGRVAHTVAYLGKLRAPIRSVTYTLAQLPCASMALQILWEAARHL
Kind of assay: mPGES-1 inhibition, HTRF detection of PGE2. It is filed as biochemical. In a few lines: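 E. coli microsomal enzyme, 0.1 M KPi pH 7.4 + 2.5 mM GSH; cpd (DMSO) 25 min RT; PGH2 1 min; acidic FeCl2 stop. Dilute 750-fold, HTRF (d2/Eu-cryptate anti-PGE2, overnight 4 °C), 665/620 ratio vs PGE2 standard curve.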
For orientation: In TR-FRET formats the signal depends on donor and acceptor labels being close together.

Broadly, the inhibition is the change of the read-out against control, counted positive when it falls.

`Cn1c(Nc2c(Cl)cc(F)cc2Cl)nc2cc(C(=O)NCC(F)(F)C(F)(F)C(F)(F)C(F)(F)F)c(OCC(F)F)nc21` [Example 872, 2-(2,6-Dichloro-4-fluoro-phenylamino)-5-(2,2-difluoro-ethoxy)-N-(2,2,3,3,4,4,5,5,5-nonafluoropentyl)-3-methyl-3H-imidazo[4,5-b]pyridine-6-carboxamide]: the inhibition at 10 µM was found to be 100%.

On to `Cn1c(Nc2c(Cl)cc(F)cc2Cl)nc2cc(C(=O)NCC(F)(F)C(F)(F)C(F)(F)C(F)(F)F)c(OCC(F)(F)F)nc21` [Example 873, 2-(2,6-Dichloro-4-fluoro-phenylamino)-5-(2,2,2-trifluoro-ethoxy)-N-(2,2,3,3,4,4,5,5,5-nonafluoropentyl)-3-methyl-3H-imidazo[4,5-b]pyridine-6-carboxamide], for which the inhibition at 10 µM is 100%.

The values above are taken from patent US8703796B2, “3H-imidazo [4, 5-B] pyridine-6-carboxamides as anti-inflammatory agents” (Boehringer Ingelheim International GmbH, priority 2008, dated 2014).
